# Assay results published in patent publication US20070128217A1 (priority 2003, published 2007).
# How the values were obtained:
# [1] = test system: rabbit serum obtained by immunizing a rabbit with the SARS-CoV strain Frankfurt 1; format: binding; set-up: Binding of a rabbit serum to linear peptides / Binding of a rabbit serum to looped peptides / Rabbit serum linear peptides / Rabbit serum looped peptides / Binding of a rabbit serum to linear peptides of protein N of SARS-CoV Urbani (Rabbit serum linear peptides) / Binding of a rabbit serum to looped/cyclic peptides of protein N of SARS-CoV Urbani (Rabbit serum looped peptides): unit not given here
# [2] = test system: control sera (pooled serum of ten healthy LUMC hospital workers; commercial negative donor pooled serum from the Dutch bloodbank); format: binding, human; set-up: Binding of Control serum LUMC to linear peptides / Binding of Control serum Blood-bank to linear peptides / Binding of Control serum LUMC to looped peptides / Binding of Control Serum Blood-Bank to Looped peptides / Binding of Control serum LUMC to linear peptides of the protein M of SARS-CoV Urbani / Binding of Control serum Blood-bank to linear peptides of the protein M of SARS-CoV Urbani / Binding of Control serum LUMC to looped peptides of the protein M of SARS-CoV Urbani / Binding of Control Serum Blood-Bank to Looped peptides of the protein M of SARS-CoV Urbani: unit not given here
# [3] = test system: antibodies in sera from SARS patients (sera 1a, 1b, 2, 6, 37, 62, London, SARS-yellow, SARS-green); format: binding, human; set-up: Binding of serum 6 to linear peptides of protein X1 of SARS-CoV Urbani / Binding of serum 37 to linear peptides of protein X1 of SARS-CoV Urbani / Binding of serum 6 to looped/cyclic peptide (PEPSCAN-ELISA) / Binding of serum 37 to looped/cyclic peptide (PEPSCAN-ELISA) / Binding of serum 37 to looped/cyclic peptides of protein X1 of SARS-CoV Urbani / Binding of serum 6 to linear peptides of protein X2 / Binding of serum 37 to linear peptides of protein X2 / Binding of serum 37 to looped/cyclic peptides of protein X2 of SARS-CoV Urbani / Binding of serum 6 to linear peptides of protein M of SARS-CoV Urbani / Binding of serum 37 to linear peptides of protein M of SARS-CoV Urbani / Binding of serum 6 to looped/cyclic peptides of protein M of SARS-CoV Urbani / Binding of serum 37 to looped/cyclic peptides of protein M of SARS-CoV Urbani / Binding of serum 6 to linear peptides of protein X3 of SARS-CoV Urbani / Binding of serum 37 to linear peptides of protein X3 of SARS-CoV Urbani / Binding of serum 37 to looped/cyclic peptides of protein X3 of SARS-CoV Urbani / Binding of serum 6 to linear peptides of protein X4 of SARS-CoV Urbani / Binding of serum 37 to linear peptides of protein X4 of SARS-CoV Urbani / Binding of serum 37 to looped/cyclic peptides of protein X4 of SARS-CoV Urbani / Binding of serum 6 to linear peptides of protein X5 of SARS-CoV Urbani / Binding of serum 37 to linear peptides of protein X5 of SARS-CoV Urbani / Binding of serum 37 to looped/cyclic peptides of protein X5 of SARS-CoV Urbani / Binding of serum 6 to linear peptides of protein N of SARS-CoV Urbani / Binding of serum 37 to linear peptides of protein N of SARS-CoV Urbani / Binding of serum 6 to linear peptide (PEPSCAN-ELISA) / Binding of serum 1a to looped/cyclic peptides of protein N of SARS-CoV Urbani / Binding of serum 1b to looped/cyclic peptides of protein N of SARS-CoV Urbani / Binding of serum 2 to looped/cyclic peptides of protein N of SARS-CoV Urbani / Binding of serum 6 to looped/cyclic peptides of protein N of SARS-CoV Urbani / Binding of serum 37 to looped/cyclic peptides of protein N of SARS-CoV Urbani / Binding of serum 62 to looped/cyclic peptides of protein N of SARS-CoV Urbani / Binding of serum London to looped/cyclic peptides of protein N of SARS-CoV Urbani / Binding of serum SARS-green to looped/cyclic peptides of protein N of SARS-CoV Urbani: unit not given here
Sequence,Binding of a rabbit serum to linear peptides [1],Binding of a rabbit serum to looped peptides [1],Binding of Control Serum Blood-Bank to Looped peptides [2],Binding of Control serum Blood-bank to linear peptides [2],Binding of Control serum LUMC to linear peptides [2],Binding of Control serum LUMC to looped peptides [2],Binding of serum 1a to linear peptides of protein X2 [3],Binding of serum 1a to looped/cyclic peptides of protein X2 of SARS-CoV Urbani [3],Binding of serum 1b to linear peptides of protein X2 [3],Binding of serum 1b to looped/cyclic peptides of protein X2 of SARS-CoV Urbani [3],Binding of serum 2 to linear peptides of protein X2 [3],Binding of serum 2 to looped/cyclic peptides of protein X2 of SARS-CoV Urbani [3],Binding of serum 6 to linear peptides of protein X2 [3],Binding of serum 6 to looped/cyclic peptides of protein X2 of SARS-CoV Urbani [3],Binding of serum 37 to linear peptides of protein X2 [3],Binding of serum 37 to looped/cyclic peptides of protein X2 of SARS-CoV Urbani [3],Binding of serum 62 to linear peptides of protein X2 [3],Binding of serum 62 to looped/cyclic peptides of protein X2 of SARS-CoV Urbani [3],Binding of serum London to linear peptides of protein X2 [3],Binding of serum London to looped/cyclic peptides of protein X2 of SARS-CoV Urbani [3],other results
MSLYMAISPKFTTSL,0.3,0.5,0.8,0.7,0.6,0.9,0.8,0.7,0.7,0.6,0.4,0.4,0.3,0.5,0.6,0.5,0.6,0.8,0.4,0.4,Binding of serum SARS-green to linear peptides of protein X2 [3]: 0.5; Binding of serum SARS-green to looped/cyclic peptides of protein X2 of SARS-CoV Urbani [3]: 0.3; Binding of serum SARS-yellow to linear peptides of protein X2 [3]: 0.3; Binding of serum SARS-yellow to looped/cyclic peptides of protein X2 of SARS-CoV Urbani [3]: 0.5
MTTVYHITVSQIQLS,0.7,0.4,0.6,0.6,0.6,0.5,0.7,0.5,0.6,0.5,0.5,0.3,0.5,0.3,0.6,0.5,0.5,0.6,0.5,0.2,Binding of serum SARS-green to linear peptides of protein X2 [3]: 0.2; Binding of serum SARS-green to looped/cyclic peptides of protein X2 of SARS-CoV Urbani [3]: 0.4; Binding of serum SARS-yellow to linear peptides of protein X2 [3]: 0.6; Binding of serum SARS-yellow to looped/cyclic peptides of protein X2 of SARS-CoV Urbani [3]: 0.4
NACRIIMRCWLCWKC,,,0.8,1.0,0.5,0.6,,,,,,,,,,,,,,,"Recognition of the peptide by the rabbit serum [1]: recognized; Binding of serum 1a to looped/cyclic peptide (PEPSCAN-ELISA) [3]: 0.6; Binding of serum 1b to looped/cyclic peptide (PEPSCAN-ELISA) [3]: 0.5; Binding of serum 2 to looped/cyclic peptide (PEPSCAN-ELISA) [3]: 0.5; Binding of serum 6 to looped/cyclic peptide (PEPSCAN-ELISA) [3]: 0.6; Binding of serum 37 to looped/cyclic peptide (PEPSCAN-ELISA) [3]: 0.5; Binding of serum 62 to looped/cyclic peptide (PEPSCAN-ELISA) [3]: 0.7; Binding of serum London to looped/cyclic peptide (PEPSCAN-ELISA) [3]: 0.3; Binding of serum SARS-green to looped/cyclic peptide (PEPSCAN-ELISA) [3]: 0.3; Binding of serum SARS-yellow to looped/cyclic peptide (PEPSCAN-ELISA) [3]: 0.4; Recognition of the peptide by sera of SARS-CoV infected individuals, and form (linear, looped/cyclic) in which it is recognized [3]: recognized in linear form"
